Paper PMC7849553 (Haematologica, 2020)
pKd: −log10 of the molar value.

Legend:
[1] = target: mouse CLEC-2 (Fc-mCLEC-2) (Mus musculus, UniProt Q9JL99); experiment: biochemical
[2] = target: human CLEC-2 (hFc-CLEC-2) (Homo sapiens, UniProt Q9P126); experiment: biochemical
human CLEC-2 (hFc-CLEC-2), sequence (Q9P126 55-229 limits assumed): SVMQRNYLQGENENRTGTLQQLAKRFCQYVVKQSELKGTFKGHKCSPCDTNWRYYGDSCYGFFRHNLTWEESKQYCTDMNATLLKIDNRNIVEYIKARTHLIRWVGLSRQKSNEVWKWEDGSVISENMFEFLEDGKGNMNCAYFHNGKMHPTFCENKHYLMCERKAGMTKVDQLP

mouse CLEC-2 (Fc-mCLEC-2), sequence (Q9JL99 53-229 limits assumed): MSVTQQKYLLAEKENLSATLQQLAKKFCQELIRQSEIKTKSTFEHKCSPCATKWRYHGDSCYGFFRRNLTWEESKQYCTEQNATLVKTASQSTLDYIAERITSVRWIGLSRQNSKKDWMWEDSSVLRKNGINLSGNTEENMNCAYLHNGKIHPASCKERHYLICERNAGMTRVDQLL

C=CC1=C(C)C2=Cc3c(C=C)c(C)c4[n]3[Fe]([Cl])[n]3c(c(C)c(CCC(=O)O)c3=CC3=NC(=C4)C(C)=C3CCC(=O)O)=CC1=N2 [hemin]
pKd [1]: ~6.70 | pKd [2]: ~6.70
